Where a SMILES comes first, the peptide text is derived from it.
Experiments:
EcPBP3 [1] = molecular target: T1, EcPBP3 (Escherichia coli, UniProt P0AD68); assay: Fluorescence polarisation competition assay with BOCILLIN-FL as tracer; format: binding; conditions: competition format; NB, non-binder (100 μM top concentration); read-out: IC50 (nM) by fluorescence polarisation with Bocillin FL as tracer, Geometric mean (Lower 95% CI of geo. Mean; Upper 95% CI of geo. Mean, n=number of values)
T1 construct: For assays, selections and SPR a construct with residues 60–588 which has the N-terminal domain, but not the transmembrane helix, was used; made in house
T1 sequence (P0AD68 60-588): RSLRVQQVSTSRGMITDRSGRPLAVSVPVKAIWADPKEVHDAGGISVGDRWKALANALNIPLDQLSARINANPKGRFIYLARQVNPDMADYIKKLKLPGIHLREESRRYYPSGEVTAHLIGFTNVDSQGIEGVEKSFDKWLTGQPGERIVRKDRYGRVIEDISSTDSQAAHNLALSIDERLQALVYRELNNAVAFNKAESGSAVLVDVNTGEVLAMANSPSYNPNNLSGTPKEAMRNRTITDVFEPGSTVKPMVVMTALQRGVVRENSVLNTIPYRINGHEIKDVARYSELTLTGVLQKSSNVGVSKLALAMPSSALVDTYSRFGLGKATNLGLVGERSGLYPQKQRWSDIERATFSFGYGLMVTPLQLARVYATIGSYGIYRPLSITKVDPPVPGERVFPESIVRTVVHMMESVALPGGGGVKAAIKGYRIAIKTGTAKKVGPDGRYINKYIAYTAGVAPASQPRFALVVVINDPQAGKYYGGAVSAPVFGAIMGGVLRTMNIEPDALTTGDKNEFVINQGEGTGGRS
Procedure: Binding of output peptides to EcPBP3 was evaluated using a fluorescence polarisation (FP) assay.
[…] 10 µL of protein (9.4 nM) was mixed with either 5 µL of peptide or 5 µL of buffer and then the assay was initiated by the addition of 10 µL of tracer (1 nM) (final volume 25 µL), in a black 384 low bind, low volume plate (Corning). The buffer was 10 mM HEPES (Sigma), 2% (v/v) glycerol (Sigma), 300 mM NaCl (Sigma), adjusted to pH 8. The plate was incubated for 1 h at 25 °C and then read in a PHERAstar FS (BMG) using with an “FP 485 520 520” optic module (excitation 485 nm, emission 520 nm). The gain was determined immediately prior to the read on a tracer-only well.
Dotmatics (Dotmatics) workflows performing the above calculations were used to process the data. Values quoted are the geometric means of at least 2 repeats.

EcPBP3 [2] = molecular target: T1, EcPBP3; assay: Fluorescence polarisation competition assay with fluorescent Bicycle tracer (tracer 1 / BCY12820); format: binding; conditions: protein 9.4 nM sets sensitivity limit, top concentration 5 µM, read-out: Ki (nM) by fluorescence polarisation with tracer 1 (BCY12820 as tracer), Geometric mean (Lower 95% CI; Upper 95% CI, n=number of values)
Procedure, shortened: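 Unlabelled peptide competes with fluorescent Bicycle tracer (1 nM, as added) for EcPBP3 (9.4 nM, as added) in 10 mM HEPES, 2% glycerol, 300 mM NaCl, pH 8.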

EcPBP3 [3] = molecular target: T1, EcPBP3; assay: SPR binding assay on immobilised EcPBP3; conditions: 37 °C, kinetic fitting, NB = no binding at 2500 nM (Tables S-4, S-5) or 5000 nM (Table 1); for Kd: read-out: Kd (nM) by SPR (geomean)
Procedure, shortened: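 EcPBP3 amine-coupled to CM5 chip (1500-2500 RU); compounds injected at 37 °C in 10 mM HEPES pH 8.0, 200 mM NaCl, 0.05% Tween-20, 2% DMSO, 50 μL min^–1, 150 s contact, 2400 s dissociation. Double-referenced sensorgrams kinetically fitted for Kd; geometric mean of ≥2 biological replicates.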

SMILES	IC50 (EcPBP3 [1])	Ki (EcPBP3 [2])	Kd (EcPBP3 [3])	Kd (nM) by SPR (geomean) (EcPBP3 [3])
CC(C)C[C@@H]1NC(=O)[C@H](C(C)C)NC(=O)[C@H](C(C)C)NC(=O)[C@@H]2CCCN2C(=O)[C@H](CCCNC(=N)N)NC(=O)[C@H](C)NC(=O)[C@@H](NC(=O)[C@H](C)N)CSCCC(=O)N2CN3CN(C2)C(=O)CCSC[C@H](NC1=O)C(=O)N[C@@H](Cc1ccc(O)cc1)C(=O)N[C@@H](Cc1c[nH]c2ccccc12)C(=O)N1CCC[C@H]1C(=O)N[C@@H](CCC(=O)O)C(=O)N[C@@H](CC(=O)O)C(=O)N[C@H](C(=O)N[C@@H](C)C(N)=O)CSCCC3=O [Peptide 15] (HELM PEPTIDE1{A.C.A.R.P.V.V.L.C.Y.W.P.E.D.C.A.[am]}|CHEM1{[O=C(CC[*:1])N1CN(C(=O)CC[*:2])CN(C(=O)CC[*:3])C1]}$PEPTIDE1,CHEM1,2:R3-1:R1|PEPTIDE1,CHEM1,9:R3-1:R2|PEPTIDE1,CHEM1,15:R3-1:R3$$$V2.0)	> 100000 nM	–	–	–
CC(C)C[C@@H]1NC(=O)CNC(=O)[C@@H]2CCCN2C(=O)[C@H](Cc2ccc(O)cc2)NC(=O)[C@H](C)NC(=O)[C@H](Cc2ccc(O)cc2)NC(=O)[C@@H]2CCCN2C(=O)[C@@H](NC(=O)[C@H](C)N)CSCCC(=O)N2CN3CN(C2)C(=O)CCSC[C@H](NC1=O)C(=O)N[C@@H](CC(C)C)C(=O)N[C@@H](CCC(=O)O)C(=O)N[C@@H](Cc1ccccc1)C(=O)N[C@@H](CCCCN)C(=O)N[C@@H](CO)C(=O)N[C@H](C(=O)N[C@@H](C)C(N)=O)CSCCC3=O [Peptide 11] (HELM PEPTIDE1{A.C.P.Y.A.Y.P.G.L.C.L.E.F.K.S.C.A.[am]}|CHEM1{[O=C(CC[*:1])N1CN(C(=O)CC[*:2])CN(C(=O)CC[*:3])C1]}$PEPTIDE1,CHEM1,2:R3-1:R1|PEPTIDE1,CHEM1,10:R3-1:R2|PEPTIDE1,CHEM1,16:R3-1:R3$$$V2.0)	> 100000 nM	–	–	–
CSCC[C@@H]1NC(=O)[C@H](CC(C)C)NC(=O)[C@@H]2CSCCC(=O)N3CN(CN(C3)C(=O)CCSC[C@@H](C(=O)N[C@@H](C)C(N)=O)NC(=O)[C@H](CC(C)C)NC(=O)[C@H](CCC(=O)O)NC(=O)[C@@H]3CCCN3C(=O)[C@H](Cc3ccccc3)NC1=O)C(=O)CCSC[C@H](NC(=O)[C@H](C)N)C(=O)N[C@@H](CCCNC(=N)N)C(=O)NCC(=O)N[C@@H](CCC(=O)O)C(=O)N[C@@H](CO)C(=O)N[C@@H](CO)C(=O)N[C@@H](Cc1ccccc1)C(=O)N2 [Peptide 4] (HELM PEPTIDE1{A.C.R.G.E.S.S.F.C.L.M.F.P.E.L.C.A.[am]}|CHEM1{[O=C(CC[*:1])N1CN(C(=O)CC[*:2])CN(C(=O)CC[*:3])C1]}$PEPTIDE1,CHEM1,2:R3-1:R1|PEPTIDE1,CHEM1,9:R3-1:R2|PEPTIDE1,CHEM1,16:R3-1:R3$$$V2.0)	> 100000 nM	–	–	–
CC(C)C[C@@H]1NC(=O)[C@@H](NC(=O)[C@H](C)N)CSCCC(=O)N2CN3CN(C2)C(=O)CCSC[C@H](NC(=O)[C@H](CCCCNC(=N)N)NC(=O)[C@@H]2CCCN2C(=O)[C@H](Cc2ccccc2)NC1=O)C(=O)N1CCC[C@H]1C(=O)N[C@@H](Cc1c[nH]c2ccccc12)C(=O)N[C@@H](C(C)C)C(=O)N[C@@H](CCC(=O)O)C(=O)NCC(=O)N[C@H](C(=O)N[C@@H](C)C(N)=O)CSCCC3=O [Peptide 27] (HELM PEPTIDE1{A.C.L.F.P.[N=C(N)NCCCC[C@H](N[*:1])C(=O)[*:2]].C.P.W.V.E.G.C.A.[am]}|CHEM1{[O=C(CC[*:1])N1CN(C(=O)CC[*:2])CN(C(=O)CC[*:3])C1]}$PEPTIDE1,CHEM1,2:R3-1:R1|PEPTIDE1,CHEM1,7:R3-1:R2|PEPTIDE1,CHEM1,13:R3-1:R3$$$V2.0)	–	< 9 nM	3.36 nM	–
CC(C)[C@@H]1NC(=O)[C@H](Cc2c[nH]c3ccccc23)NC(=O)[C@@H]2CCCN2C(=O)[C@@H]2CSCCC(=O)N3CN(CN(C3)C(=O)CCSC[C@H](NC(=O)[C@H](C)N)C(=O)N[C@@H](C)C(=O)N[C@@H](Cc3ccccc3)C(=O)N3CCC[C@H]3C(=O)N[C@@H](CCCCN)C(=O)N2)C(=O)CCSC[C@@H](C(=O)N[C@@H](C)C(N)=O)NC(=O)CNC(=O)[C@H](CCC(=O)O)NC1=O [Peptide 16] (HELM PEPTIDE1{A.C.A.F.P.K.C.P.W.V.E.G.C.A.[am]}|CHEM1{[O=C(CC[*:1])N1CN(C(=O)CC[*:2])CN(C(=O)CC[*:3])C1]}$PEPTIDE1,CHEM1,2:R3-1:R1|PEPTIDE1,CHEM1,7:R3-1:R2|PEPTIDE1,CHEM1,13:R3-1:R3$$$V2.0)	–	< 9 nM	6.44 nM	–
CC(C)[C@@H]1NC(=O)[C@H](Cc2c[nH]c3ccccc23)NC(=O)[C@@H]2CCCN2C(=O)[C@@H]2CSCCC(=O)N3CN(CN(C3)C(=O)CCSC[C@H](NC(=O)[C@H](C)N)C(=O)N[C@@H](CO)C(=O)N[C@@H](Cc3ccccc3)C(=O)N3CCC[C@H]3C(=O)N[C@@H](C)C(=O)N2)C(=O)CCSC[C@@H](C(=O)N[C@@H](C)C(N)=O)NC(=O)CNC(=O)[C@H](CCC(=O)O)NC1=O [Peptide 19]	–	< 9 nM	12.4 nM	–
C[C@H](N)C(=O)N[C@H]1CSCCC(=O)N2CN3CN(C2)C(=O)CCSC[C@H](NC(=O)[C@H](CCCCN)NC(=O)[C@@H]2CCCN2C(=O)[C@H](Cc2ccccc2)NC(=O)[C@H](CO)NC1=O)C(=O)N1CCC[C@H]1C(=O)N[C@@H](Cc1c[nH]c2ccccc12)C(=O)N[C@@H](C)C(=O)N[C@@H](CCC(=O)O)C(=O)NCC(=O)N[C@H](C(=O)N[C@@H](C)C(N)=O)CSCCC3=O [Peptide 22] (HELM PEPTIDE1{A.C.S.F.P.K.C.P.W.A.E.G.C.A.[am]}|CHEM1{[O=C(CC[*:1])N1CN(C(=O)CC[*:2])CN(C(=O)CC[*:3])C1]}$PEPTIDE1,CHEM1,2:R3-1:R1|PEPTIDE1,CHEM1,7:R3-1:R2|PEPTIDE1,CHEM1,13:R3-1:R3$$$V2.0)	–	> 5000 nM	669 nM	–
CC(C)[C@@H]1NC(=O)[C@H](Cc2c[nH]c3ccccc23)NC(=O)[C@@H]2CCCN2C(=O)[C@@H]2CSCCC(=O)N3CN(CN(C3)C(=O)CCSC[C@H](NC(=O)[C@H](C)N)C(=O)N[C@@H](CO)C(=O)N[C@@H](Cc3ccccc3)C(=O)N3CCC[C@H]3C(=O)N[C@@H](CCCCNC(=N)N)C(=O)N2)C(=O)CCSC[C@@H](C(=O)N[C@@H](C)C(N)=O)NC(=O)CNC(=O)[C@H](CCC(=O)O)NC1=O [Peptide 25]	–	< 9 nM	2.85 nM	no loss in binding or MIC
CC(C)[C@@H]1NC(=O)[C@H](C)NC(=O)[C@@H]2CCCN2C(=O)[C@@H]2CSCCC(=O)N3CN(CN(C3)C(=O)CCSC[C@H](NC(=O)[C@H](C)N)C(=O)N[C@@H](CO)C(=O)N[C@@H](Cc3ccccc3)C(=O)N3CCC[C@H]3C(=O)N[C@@H](CCCCN)C(=O)N2)C(=O)CCSC[C@@H](C(=O)N[C@@H](C)C(N)=O)NC(=O)CNC(=O)[C@H](CCC(=O)O)NC1=O [Peptide 21] (HELM PEPTIDE1{A.C.S.F.P.K.C.P.A.V.E.G.C.A.[am]}|CHEM1{[O=C(CC[*:1])N1CN(C(=O)CC[*:2])CN(C(=O)CC[*:3])C1]}$PEPTIDE1,CHEM1,2:R3-1:R1|PEPTIDE1,CHEM1,7:R3-1:R2|PEPTIDE1,CHEM1,13:R3-1:R3$$$V2.0)	–	> 5000 nM	> 2500 nM	–

Source: paper PMC12120022, “Discovery and chemical optimisation of a potent, Bi-cyclic antimicrobial inhibitor of Escherichia coli PBP3” (Communications Biology, 2025)
